Literature values in patent US20260110003A1 (Solugen, Inc., priority 2022, published 2026).

B1: ZmPDC: Zymomonas mobilis pyruvate decarboxylase (protein, UniProt P06672 1-568, looked up)
Pyruvate decarboxylase: MSYTVGTYLAERLVQIGLKHHFAVAGDYNLVLLDNLLLNKNMEQVYCCNELNCGFSAEGYARAKGAAAAVVTYSVGALSAFDAIGGAYAENLPVILISGAPNNNDHAAGHVLHHALGKTDYHYQLEMAKNITAAAEAIYTPEEAPAKIDHVIKTALREKKPVYLEIACNIASMPCAAPGPASALFNDEASDEASLNAAVEETLKFIANRDKVAVLVGSKLRAAGAEEAAVKFADALGGAVATMAAAKSFFPEENPHYIGTSWGEVSYPGVEKTMKEADAVIALAPVFNDYSTTGWTDIPDPKKLVLAEPRSVVVNGIRFPSVHLKDYLTRLAQKVSKKTGALDFFKSLNAGELKKAAPADPSAPLVNAEIARQVEALLTPNTTVIAETGDSWFNAQRMKLPNGARVEYEMQWGHIGWSVPAAFGYAVGAPERRNILMVGDGSFQLTAQEVAQMVRLKLPVIIFLINNYGYTIEVMIHDGPYNNIKNWDYAGLMEVFNGNGGYDSGAGKGLKAKTGGELAEAIKVALANTDGPTLIECFIGREDCTEELVKWGKRVAAANSRKPVNKLL

Assays:
[1] = for Prefers Phase: aqueous (Aq) or organic (Org) phase in the MPER; for LogP: partition coefficient, <0 preference for aqueous, >0 for organic
[2] = relative to VvSucA

| Molecule | Prefers Phase [1] | LogP [1] | more acetoin produced than VvSucA [2] [%] |
| --- | --- | --- | --- |
| CC=O [Acetaldehyde] | Aq | −0.34 |  |
| CCO [Ethanol] | Both |  |  |
| CCOC(=O)C(C)=O [Ethyl Pyruvate] | Org | 0.4 |  |
| CC(=O)C(=O)O [Pyruvate ion] | Aq | <<0 |  |
| CC(=O)C(=O)O [Pyruvic Acid] | Aq | −0.3 |  |
| B1 |  |  | 57 |
